Some results are limits rather than exact numbers.

Tested on in one data set: not given
Assay: not given
Settings: not given
`O=C(O)CCCCN(CCc1ccc(F)cc1OCc1ccc(C2CCCCC2)cc1)Cc1ccc(C(=O)O)cc1` [Example 1, 4-{[(4-carboxybutyl)(2-{2-[(4-cyclohexylbenzyl)oxy]-4-fluorophenyl}ethyl)amino]methyl}benzoic acid]: the melting point (as a rule, the temperature of the solid-liquid transition) is greater than 250 °C.

The next data set deals with arteria saphena rings. Nature of the data set: Vasorelaxant effect in vitro (phenylephrine-contracted rabbit arteria saphena rings). In kind it is cell-based, Rabbits. To be noted: Oryctolagus cuniculus, contraction by phenylephrine, 37° C., 0.1% DMSO, read-out: IC50, concentration necessary to reduce the height of the contraction control value by 50%. As to the method:
Vasorelaxant Effect in vitro
Rabbits are anesthetized or killed by intravenous injection of thiopental sodium (about 50 mg/kg) and exsanguinated. The arteria saphena is removed and divided into rings 3 mm wide. The individual rings are in each case mounted on a pair of hooks of triangular shape, open at the ends and made of special wire (Remanium®) having a diameter of 0.3 mm. Under pretension, each ring is introduced into a 5 ml organ bath containing carbogen-gassed Krebs-Henseleit solution at 37° C. with the following composition (mM): NaCl: […]; KCl: 4.8; CaCl2×2H2O: 1; MgSO4×7H2O: 1.4; KH2PO4: 1.2; NaHCO3: 25; glucose: 10; bovine serum albumin: 0.001%. The force of contraction is detected with Statham UC2 cells, amplified and digitized via A/D converters (DAS-1802 HC, Keithley Instruments, Munich) and recorded in parallel on chart recorders. Contractions are generated by adding phenylephrine.
After several (generally 4) control cycles, the substance to be investigated is added in each further run in increasing dosage, and the height of the contraction reached under the influence of the test substance is compared with the height of the contraction reached in the last preceding run. The concentration necessary to reduce the height of the control value by 50% (IC50) is calculated from this. The standard application volume is 5 μl. The DMSO content in the bath solution corresponds to 0.1%.
For `O=C(O)CCCCN(CCc1cc(F)ccc1OCc1ccc(C2CCCCC2)cc1)Cc1ccc(C(=O)O)cc1` [Example 2], the IC50 was 1.5 nM. With `O=C(O)CCCCN(CCc1cc(Cl)ccc1OCc1ccc(-c2ccc(Cl)cc2)cc1)Cc1ccc(C(=O)O)cc1` [Example 6], the IC50 worked out at 8.1 nM. With `COc1ccc(-c2ccc(COc3ccc(Cl)cc3CCN(CCCCC(=O)O)Cc3ccc(C(=O)O)cc3)c(Cl)c2)cc1` [Example 9], the IC50 was 8.3 nM. `O=C(O)CCCCN(CCc1cc(Cl)ccc1OCc1ccc(-c2ccc(C(F)(F)F)cc2)cc1)Cc1ccc(C(=O)O)cc1` [Example 3]: the IC50 was 1 nM.

`O=C(O)CCCCN(CCc1ccc(F)cc1OCc1ccc(C2CCCCC2)cc1)Cc1ccc(C(=O)O)cc1` [Example 1, 4-{[(4-carboxybutyl)(2-{2-[(4-cyclohexylbenzyl)oxy]-4-fluorophenyl}ethyl)amino]methyl}benzoic acid]: the IC50 was 1.1 nM.

For the origin of these results see patent publication US7067694B2, “Halogen-substituted amino dicarboxylic acid derivatives as medicaments for treating cardiovascular diseases” (Bayer Aktiengesellschaft, priority 2001, dated 2006).
